Each block holds one compound with its values, some of them ahead of it.
Columns and labels:
[1] = target: Proto-oncogene tyrosine-protein kinase Src (Gallus gallus, UniProt P00523); assay: Binding affinity to chicken 6-His tagged c-Src expressed in Escherichia coli Bl21 (DE3) assessed as dissociation constant
[2] = target: Proto-oncogene tyrosine-protein kinase Src (Homo sapiens, UniProt P12931); assay: Irreversible inhibition of wild type c-Src (unknown origin) assessed as inhibition constant by fluorimetric assay
[3] = target: Mitogen-activated protein kinase 7 (Mus musculus, UniProt Q9WVS8); assay: Activation of ERK5 in MEF cells; assay type: cell-based
Mitogen-activated protein kinase 7, sequence (Q9WVS8 whole entry): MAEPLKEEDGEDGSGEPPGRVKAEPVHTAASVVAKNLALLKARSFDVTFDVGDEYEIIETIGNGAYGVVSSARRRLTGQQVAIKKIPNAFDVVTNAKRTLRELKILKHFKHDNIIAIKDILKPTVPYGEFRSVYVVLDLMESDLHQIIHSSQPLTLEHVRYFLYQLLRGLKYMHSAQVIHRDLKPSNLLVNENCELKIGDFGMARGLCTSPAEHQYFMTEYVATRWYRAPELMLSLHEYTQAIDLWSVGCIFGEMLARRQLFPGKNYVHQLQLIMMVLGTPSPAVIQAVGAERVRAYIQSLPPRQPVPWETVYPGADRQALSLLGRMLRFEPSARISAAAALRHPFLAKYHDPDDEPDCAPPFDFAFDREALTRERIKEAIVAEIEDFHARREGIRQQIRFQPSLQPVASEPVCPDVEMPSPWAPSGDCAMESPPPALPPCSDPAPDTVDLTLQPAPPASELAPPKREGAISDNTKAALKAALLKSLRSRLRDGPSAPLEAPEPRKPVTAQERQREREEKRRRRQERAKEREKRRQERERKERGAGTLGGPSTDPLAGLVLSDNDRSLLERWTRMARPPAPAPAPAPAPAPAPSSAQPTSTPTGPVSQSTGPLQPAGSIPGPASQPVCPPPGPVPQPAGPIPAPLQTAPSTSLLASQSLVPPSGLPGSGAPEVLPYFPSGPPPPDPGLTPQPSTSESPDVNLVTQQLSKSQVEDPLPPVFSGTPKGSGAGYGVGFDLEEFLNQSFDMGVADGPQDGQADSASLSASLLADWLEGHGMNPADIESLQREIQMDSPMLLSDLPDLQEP

Proto-oncogene tyrosine-protein kinase Src (Homo sapiens, UniProt P12931), sequence (P12931 2-536 limits assumed): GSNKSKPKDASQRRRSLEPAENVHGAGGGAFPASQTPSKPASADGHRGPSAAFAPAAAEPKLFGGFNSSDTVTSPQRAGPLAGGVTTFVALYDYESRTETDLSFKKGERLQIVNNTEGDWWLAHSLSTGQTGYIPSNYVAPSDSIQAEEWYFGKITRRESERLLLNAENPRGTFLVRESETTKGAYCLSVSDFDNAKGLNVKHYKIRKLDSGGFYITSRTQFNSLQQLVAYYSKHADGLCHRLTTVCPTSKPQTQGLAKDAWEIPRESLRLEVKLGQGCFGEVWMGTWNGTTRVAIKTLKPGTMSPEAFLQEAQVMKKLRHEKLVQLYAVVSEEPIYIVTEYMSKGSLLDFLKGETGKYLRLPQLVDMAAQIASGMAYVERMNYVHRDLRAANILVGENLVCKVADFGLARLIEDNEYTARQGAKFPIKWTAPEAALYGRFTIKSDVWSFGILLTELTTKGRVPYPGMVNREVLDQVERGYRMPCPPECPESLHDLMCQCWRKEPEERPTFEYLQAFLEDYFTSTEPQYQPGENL

Kd [1]: 0.28 nM
Compound: CCC(C)[C@@H](NC(=O)[C@@H](CCC(=O)O)NC(=O)[C@@H](CCC(=O)O)NC(=O)[C@@H](CCC(=O)O)NC(C)=O)C(=O)N[C@H](Cc1ccc(NC(=O)CCCCCn2cc(-c3ccc(-n4nc(-c5ccc(Cl)cc5)c5c(N)ncnc54)cc3)nn2)cc1)C(=O)NCC(=O)N[C@H](CCC(=O)O)C(=O)N[C@H](Cc1ccccc1)C(=O)N[C@H](CCC(=O)O)C(=O)N[C@H](C)C(N)=O (stereo partly drawn)

Ki [2]: 20 nM
Compound: O=C(CCS)Nc1cccc(Nc2nccc(Nc3cc(C4CC4)[nH]n3)n2)c1

IC50 [3]: 120 nM
Compound: CN1CCN(c2cnc3c(C4CCN(C(=O)c5ccc(OC(F)(F)F)cc5N)CC4)ncnc3c2)CC1 [BAY-885]
